Structures are written as SMILES. Where only a bound is given, the exact number is not on record here.

In general, Emax refers to the size of the effect at its maximum, as opposed to the concentration needed. Broadly, the EC50 is the concentration at which the effect is half-maximal. The low end stands for an effect from little substance, the high end for a need for much substance.

In the test the target is T1, human Cystic Fibrosis Transmembrane Conductance Regulator (CFTR) harboring the ΔF508 mutation (Homo sapiens, UniProt P13569, DEL508-508).
T1 construct: expressed in transfected cells; host or cells: H441 carcinoma line (G418 selection)
T1 sequence (P13569 with tags, fused parts or gaps DEL508-508): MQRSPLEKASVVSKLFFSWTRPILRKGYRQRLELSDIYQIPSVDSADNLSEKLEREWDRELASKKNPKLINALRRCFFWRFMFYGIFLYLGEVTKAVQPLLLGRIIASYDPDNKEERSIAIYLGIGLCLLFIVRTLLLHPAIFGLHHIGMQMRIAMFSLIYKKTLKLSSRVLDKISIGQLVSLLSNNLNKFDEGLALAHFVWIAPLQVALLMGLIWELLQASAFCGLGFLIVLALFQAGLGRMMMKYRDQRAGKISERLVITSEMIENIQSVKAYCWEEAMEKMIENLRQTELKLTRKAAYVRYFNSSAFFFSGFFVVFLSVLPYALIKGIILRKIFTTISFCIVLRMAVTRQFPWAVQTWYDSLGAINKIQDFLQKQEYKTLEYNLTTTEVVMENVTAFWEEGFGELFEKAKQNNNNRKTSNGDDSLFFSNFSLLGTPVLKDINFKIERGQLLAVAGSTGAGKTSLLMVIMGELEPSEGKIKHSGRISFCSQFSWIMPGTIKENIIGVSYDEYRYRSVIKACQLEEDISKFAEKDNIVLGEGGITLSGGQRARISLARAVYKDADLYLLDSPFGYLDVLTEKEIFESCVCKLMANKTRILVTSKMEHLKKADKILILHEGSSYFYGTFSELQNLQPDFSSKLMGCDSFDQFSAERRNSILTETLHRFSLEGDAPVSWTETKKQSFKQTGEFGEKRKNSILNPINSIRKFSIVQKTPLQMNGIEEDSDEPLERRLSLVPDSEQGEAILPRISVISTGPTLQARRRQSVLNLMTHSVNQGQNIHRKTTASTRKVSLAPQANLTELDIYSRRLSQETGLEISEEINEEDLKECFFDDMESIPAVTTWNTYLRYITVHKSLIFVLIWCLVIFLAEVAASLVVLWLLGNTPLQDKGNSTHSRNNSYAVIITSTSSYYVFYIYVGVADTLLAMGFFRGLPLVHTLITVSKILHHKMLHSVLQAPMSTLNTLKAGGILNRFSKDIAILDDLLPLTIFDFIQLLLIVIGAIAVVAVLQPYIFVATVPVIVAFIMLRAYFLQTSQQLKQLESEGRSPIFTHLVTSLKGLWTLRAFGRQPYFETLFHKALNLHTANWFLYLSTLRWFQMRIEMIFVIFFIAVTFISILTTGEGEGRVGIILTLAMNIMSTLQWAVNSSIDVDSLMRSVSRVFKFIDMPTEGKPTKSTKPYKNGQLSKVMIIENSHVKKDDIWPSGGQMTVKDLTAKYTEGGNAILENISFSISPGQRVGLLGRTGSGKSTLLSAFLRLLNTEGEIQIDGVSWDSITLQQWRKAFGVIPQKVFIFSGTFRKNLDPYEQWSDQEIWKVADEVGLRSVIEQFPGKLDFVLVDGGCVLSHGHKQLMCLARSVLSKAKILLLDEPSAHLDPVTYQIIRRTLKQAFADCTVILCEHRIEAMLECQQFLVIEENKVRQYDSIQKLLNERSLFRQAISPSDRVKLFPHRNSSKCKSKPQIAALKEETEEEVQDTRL
As to the kind of experiment: H441 cell Emax and EC50: HRP-tagged ΔF508-CFTR cell surface luminescence assay. It is filed as cell-based. The following applies: H441 cells expressing ΔF508-CFTR-HRP, 27° C., two nights; for Emax: NCI-H441, % of maximum VX809 signal; for EC50: 15-point dose-response, top 24.5 μM. The text has this:
Two cell lines were used, the H441 carcinoma line and the CFHBE41o-(41o-) human bronchial epithelial line. Both cell lines expressed human Cystic Fibrosis Transmembrane Conductance Regulator (CFTR) harboring the ΔF508 mutation and with an in-frame fusion in CFTR extracellular loop 4 of Horse Radish Peroxidase (HRP) under control of the CMV promoter. In the presence of the HRP tag, ΔF508-CFTR transported to the cell surface was detectable upon addition of an HRP substrate (Luminata Forte). Both cell types were cultivated at 37° C. with CO2.
For both cell types, the medium was changed every other day unless the culture was at low % confluence. Cells were used for the assays at ˜75% confluence.
To a polypropylene (PP) 384-well plate, 15 μls DMSO was added to all wells in columns 1-22 and 24 (low Control). 15 μls of 260 μM VX809 (Lumacaftor), Selleckchem S1565, was added to column 23 wells (high Control). 15 μls of 10 mM test compound or VX809 (control) were added to wells of row A. Serial dilutions of Row A compound were performed 2×15 μls in rows A through O (15-point).
A PP, 384-well plate containing the appropriate cell culture medium was prepared for each assay plate with 100 μls per well. For the doxycycline-induced 41o-cells, doxycycline for both the assay plate and the medium dilution plate was added at 0.0005 mg/ml to the medium.
Both cell lines were plated for the assay at 30 uls per 384-well at 3.4×10^e5 cells per ml (˜10K cells/well). H441 cells were plated on opaque, white, Corning plate 3704. 41o-cells were plated on collagen-coated opaque, white, Corning plate 356665. For 41o-cells, doxycycline was added to the medium.
Using FX (Beckman) protocol, 10 uls diluted compound or medium was added per well to the Assay Plate as: 2 μls DMSO Dilution plate well is diluted in 100 uls of the Medium Dilution Plate well, mixed, and 10 uls is transferred to the Assay Plate.
The final assay dilution series is 24.5, 12.3, 6.1, 3.1, 1.5, 0.8, 0.4, 0.2, 0.1, 0.05, 0.02, 0.01, 0.006, 0.003, 0.001 and 0 μM. The 41o-assay plates were incubated at 37° C. w/CO2, the H441 assay plates were incubated at 27° C. w/CO2, each overnight for two nights.
After being brought to room temperature, the assay plate liquid was removed. 30 μls of Luminata Forte (Millipore ELLUF0100) was added per well and incubated at room temperature for 10 min. The plates were then read on a Topcount, protocol LumiMatti (CPS, luminescence). The data was analyzed for % of maximum, maximum VX809 signal, and EC50 using Pearl and SPEED tools.

`O=C(N[C@H](C(=O)O)C12CC3CC(CC(C3)C1)C2)c1ccc2sccc2c1OCc1ccc(OC(F)F)cc1` [compound 107, (2S)-2-(1-adamantyl)-2-[[4-[[4-(difluoromethoxy)phenyl]methoxy]benzothiophene-5-carbonyl]amino]acetic acid]: the Emax was -7.7%.
With `O=C(N[C@H](C(=O)O)C12CC3CC(CC(C3)C1)C2)c1ccc2cc(F)ccc2c1OCc1ccc(S(F)(F)(F)(F)F)cc1` [compound 56], a half-maximal effect (EC50) was put at 236 nM and the Emax turned out to be 89.7%.
The matching figures for `O=C(N[C@H](C(=O)O)C12CC3CC(CC(O)(C3)C1)C2)c1ccc2ccccc2c1OCc1ccc(C(F)(F)F)cc1` [compound 17]: 903 nM and 156%.
For `COC(=O)[C@@H](NC(=O)c1ccc2ccccc2c1OCc1ccc(C(F)(F)F)cc1)C12CC3CC(CC(O)(C3)C1)C2` [compound 14], in that order: at least 24500 nM and 29.9%.
The matching figures for `COCCOC12CC3CC(C1)CC([C@H](NC(=O)c1ccc4ccccc4c1OCc1ccc(C(F)(F)F)cc1)C(=O)O)(C3)C2` [compound 43]: 267 nM and 128%.
On to `O=C(N[C@H](C(=O)O)C12CC3CC(CC(C3)C1)C2)c1ccn2cccc2c1OCc1ccc(C(F)(F)F)cc1` [compound 117, (2S)-2-(1-adamantyl)-2-[[8-[[4-(trifluoromethyl)phenyl]methoxy]indolizine-7-carbonyl]amino]acetic acid], for which the EC50 is 172 nM and the Emax was determined as 160%.
Regarding `O=C(N[C@H](C(=O)O)C12CC3CC(CC(OCCO)(C3)C1)C2)c1ccc2ccccc2c1OCc1ccc(C(F)(F)F)cc1` [compound 20], a half-maximal effect (EC50) was put at 780 nM and the Emax was 144%.
The matching figures for `O=C(N[C@H](C(=O)O)C12CC3CC(CC(O)(C3)C1)C2)c1ccc2ccccc2c1OCC1CCCCC1` [compound 30]: 1450 nM and 96.8%.
Take `CS(=O)(=O)CCOC12CC3CC(C1)CC([C@H](NC(=O)c1ccc4cc(F)ccc4c1OCc1ccc(C(F)(F)F)cc1)C(=O)O)(C3)C2` [compound 39]: the response was half-maximal at 2160 nM (EC50) and the Emax came to 102%.
For `COc1ccc2c(OCc3ccc(SC(F)(F)F)cc3)c(C(=O)N[C@H](C(=O)O)C34CC5CC(CC(C5)C3)C4)ccc2c1` [compound 83], in that order: 947 nM and 16.4%.
For `CC(C)Oc1ccc2c(OCc3ccc(C(F)(F)F)cc3)c(C(=O)N[C@H](C(=O)O)C34CC5CC(CC(C5)C3)C4)ccc2c1` [compound 103, (2S)-2-(1-adamantyl)-2-[[6-isopropoxy-1-[[4-(trifluoromethyl)phenyl]methoxy]naphthalene-2-carbonyl]amino]acetic acid], in that order: 397 nM and 30.2%.
For `CC12CC3(C)CC(C)(C1)CC(C(NC(=O)c1ccc4ccccc4c1OCC1CCC(F)(F)CC1)C(=O)O)(C2)C3` (stereo not drawn) [compound 90], in that order: 1010 nM and 165%.
For the compound `NC12CC3CC(C1)CC([C@H](NC(=O)c1ccc4ccccc4c1OCc1ccc(C(F)(F)F)cc1)C(=O)O)(C3)C2` [compound 92], the Emax was -1.3%.
In the case of `O=C(N[C@H](C(=O)O)C12CC3CC(CC(C3)C1)C2)c1ccc2ccccc2c1OCC1(C(F)(F)F)CC1` [compound 102, (2S)-2-(1-adamantyl)-2-[[1-[[1-(trifluoromethyl)cyclopropyl]methoxy]naphthalene-2-carbonyl]amino]acetic acid], the midpoint of the response, the EC50, lay at 18000 nM and the Emax was 53.1%.
For `O=C(N[C@H](C(=O)O)C12CC3CC(CC(C3)C1)C2)c1cc(F)c2ccccc2c1OCc1ccc(C(F)(F)F)cc1` [compound 3], in that order: 406 nM and 156%.
In the case of `O=C(N[C@H](C(=O)O)C12CC3CC(CC(O)(C3)C1)C2)c1ccc2cccnc2c1OCC1CCC(F)(F)CC1` [compound 60], a half-maximal effect (EC50) was put at 11600 nM and the Emax amounted to 73.1%.
Consider `COc1ccc2c(OCc3ccc(C(F)(F)F)cc3)c(C(=O)N[C@H](C(=O)O)C34CC5CC(CC(C5)C3)C4)ccc2c1` [compound 38], for which the midpoint of the response, the EC50, lay at 131 nM and the Emax came to 56.2%.
For `O=C(N[C@H](C(=O)O)C12CC3CC(CC(O)(C3)C1)C2)c1ccc2cc(F)ccc2c1OCc1ccc(SC(F)(F)F)cc1` [compound 4], in that order: 991 nM and 55.7%.
With `O=C(O)[C@@H](N1CN(Cc2ccc(SC(F)(F)F)cc2)c2c(ccc3ccccc23)C1=O)C12CC3CC(CC(C3)C1)C2` [compound 126, (2S)-2-(1-adamantyl)-2-[4-oxo-1-[[4-(trifluoromethylsulfanyl)phenyl]methyl]-2H-benzo[h]quinazolin-3-yl]acetic acid], the EC50 was 477 nM and the Emax was found to be 42.2%.
For `O=C(N[C@H](C(=O)O)C12CC3CC(CC(C3)C1)C2)c1ccc2sccc2c1OCc1ccc(Cl)c(Cl)c1` [compound 110, (2S)-2-(1-adamantyl)-2-[[4-[(3,4-dichlorophenyl)methoxy]benzothiophene-5-carbonyl]amino]acetic acid], in that order: 382 nM and 173%.
For `O=C(N[C@H](C(=O)O)C12CC3CC(CC(C3)C1)C2)c1ccc2cccnc2c1OCC1CCCCC1` [compound 5], in that order: 1160 nM and 249%.
The matching figures for `O=C(N[C@H](C(=O)O)C12CC3CC(CC(O)(C3)C1)C2)c1ccc2sccc2c1OCc1ccc(OC(F)(F)F)cc1` [compound 109, (2S)-2-(3-hydroxy-1-adamantyl)-2-[[4-[[4-(trifluoromethoxy)phenyl]methoxy]benzothiophene-5-carbonyl]amino]acetic acid]: 1760 nM and 121%.
For `O=C(N[C@H](C(=O)O)C12CC3CC(CC(C3)C1)C2)c1ccc2cccnc2c1OCc1ccc(OC(F)(F)F)cc1` [compound 84], the EC50 was 660 nM and the Emax was determined as 149%.
Regarding `O=C(N[C@H](C(=O)O)C12CC3CC(Cl)(CC(Cl)(C3)C1)C2)c1ccc2ccccc2c1OCc1ccc(SC(F)(F)F)cc1` [compound 81], a half-maximal effect (EC50) was put at 113 nM and the Emax worked out at 158%.
For `COC12CC3CC(C1)CC([C@H](NC(=O)c1ccc4ccccc4c1OCc1ccc(C(F)(F)F)cc1)C(=O)O)(C3)C2` [compound 85], in that order: 375 nM and 131%.
Regarding `O=C(O)[C@@H](n1c(=O)c2ccc3ccccc3c2n(Cc2ccc(C(F)(F)F)cc2)c1=O)C12CC3CC(CC(C3)C1)C2` [compound 137, (2S)-2-(1-adamantyl)-2-[2,4-dioxo-1-[[4-(trifluoromethyl)phenyl]methyl]benzo[h]quinazolin-3-yl]acetic acid], it took 1600 nM to reach a half-maximal effect (EC50) and the Emax is 5.3%.
The matching figures for `CC12CC3(C)CC(C)(C1)CC([C@H](NC(=O)c1ccc4cccnc4c1OCc1ccc(C(F)(F)F)cc1)C(=O)O)(C2)C3` [compound 62]: 245 nM and 217%.
The matching figures for `O=C(N[C@H](C(=O)O)C12CC3CC(CC(C3)C1)C2)c1ccn2cccc2c1OCc1ccc(OC(F)(F)F)cc1` [compound 118, (2S)-2-(1-adamantyl)-2-[[8-[[4-(trifluoromethoxy)phenyl]methoxy]indolizine-7-carbonyl]amino]acetic acid; 2,2,2-trifluoroacetic acid]: 280 nM and 141%.
For `O=C(N[C@H](C(=O)O)C12CC3CC(CC(C3)C1)C2)c1ccc2c(F)cccc2c1OCc1ccc(C(F)(F)F)cc1` [compound 1], in that order: 206 nM and 176%.
For the compound `O=C(N[C@H](C(=O)O)C12CC3CC(CC(C3)C1)C2)c1ccc2cc(F)ccc2c1OCC1CCCCC1` [compound 45], the response was half-maximal at 939 nM (EC50) and the Emax came to 142%.
Turning to `O=C(N[C@H](C(=O)O)C12CC3CC(CC(C3)C1)C2)c1ccc2ccccc2c1OCc1ccc([N+](=O)[O-])cc1` [compound 73], the concentration giving a half-maximal response (EC50) came to 1320 nM and the Emax came out at 118%.

These data come from patent US12637414B2, “Arylamides and methods of use thereof” (Genzyme Corporation, priority 2019, dated 2026).
